# Data reported in patent EP0561237A2, “Enantiomer, (-)-N-(2-ethoxyphenyl)-N'-(1,2,2-trimethylpropyl)-2-nitromethene-1,1-diamine, process for its preparation and its use” (BAYER AG, priority 1992, dated 1993).
# pEC50, pIC50: −log10 of the molar value. Read-outs that look alike come from different tables or passages of the source.
# How the values were obtained:
# Gefäßmuskulatur = settings: described in DE 32 32 462; cited from earlier work
# Neuronen = assay: Effect (hyperpolarising activity) on neurons; type: cell-based, Ratten
# [1] = system: MIPP-N1E-115-Neuroblastomlinie; assay: Hyperpolarising activity in neuroblastoma cell line; type: cell-based; settings: for hyperpolarisierende Wirkung: MIPP-N1E-115 neuroblastoma line
# A10-Zellen = assay: Activity on vascular tissue (A10 cells); type: cell-based; settings: read-out: IC₅₀
# ATP-abhängige K-Kanäle = assay: Glyburide sensitivity of the hyperpolarising effect; type: cell-based; settings: with glyburide
# [2] = system: Zellinie des glatten Muskels; assay: Activity in a smooth muscle cell line; type: cell-based
# [3] = system: Neuronen vom Typ der Pyramidenzellen aus dem Hippocampus; assay: Neuroprotection on single neurons of the central nervous system; type: cell-based, Ratten; settings: single neurons from rat CNS; inhibition of raised calcium during long-term depolarisation
smiles,measurement,setting,value
"CCOc1ccccc1NC(=C[N+](=O)[O-])NC(C)C(C)(C)C (racemic) [racemische Gemisch, N-(2-Ethoxyphenyl)-N'-(1,2,2-trimethylpropyl)-2-nitroethen-1,1-diamin]",Wirkung auf die Gefäßmuskulatur,Gefäßmuskulatur,eine Wirkung auf die Gefäßmuskulatur ausübt
"CCOc1ccccc1NC(=C[N+](=O)[O-])NC(C)C(C)(C)C (single isomer, unassigned; (+)) [Beispiel 2, (+)-N-(2-Ethoxyphenyl)-N'-(1,2,2-trimethylpropyl)-2-nitroethen-1,1-diamin]",Blockierung der Wirkung des (-)-Enantiomers auf Neuronen,Neuronen; (+)-enantiomer 1 µM against effect of 5 pM (-)-enantiomer,blockiert
same,pEC50,"Neuronen; Neuron, in neurons, read-out: EC₅₀-Wert",6.30
same,"Konzentration, bei der wirksam, als Vielfaches der Konzentration des (-)-Enantiomers",Neuronen; multiple of the 5 pM concentration of the (-)-enantiomer in neurons,> 10 000 -fach
same,hyperpolarisierende Wirkung,[1]; listed as (+)-Enantiomer,nicht auf das (+)-Enantiomer anspricht
same,pIC50,A10-Zellen; listed as (+)-Enantiomer,7.82
same,"hyperpolarisierende Wirkung, Blockierbarkeit durch Glyburide",ATP-abhängige K-Kanäle; listed as (+)-Enantiomer,durch Glyburide inhibierbares Hyperpolarisierungsmittel
"CCOc1ccccc1NC(=C[N+](=O)[O-])NC(C)C(C)(C)C (single isomer, unassigned; (-)) [Beispiel 1, (-)-N-(2-Ethoxyphenyl)-N'-(1,2,2-trimethylpropyl)-2-nitroethen-1,1-diamin]",pIC50,"Neuronen; Neuron, in neurons, read-out: IC₅₀-Wert",11.30
same,hyperpolarisierende Wirkung,[1]; listed as (-)-Enantiomer,wirksam
same,pEC50,"[1]; Neuroblastoma cell, newly found hyperpolarising activity not blocked by glyburide, read-out: EC₅₀",> 11.00
same,pIC50,A10-Zellen; listed as (-)-Enantiomer,6.60
same,Wirksamkeit,[2],unwirksam
same,Neuroprotektion,[3],bemerkenswerte Neuroprotektion
same,"hyperpolarisierende Wirkung, Blockierbarkeit durch Glyburide",ATP-abhängige K-Kanäle; listed as (-)-Enantiomer,durch Glyburide nicht blockiert
